# Key:
# [1] = target: Cannabinoid receptor 1 (Homo sapiens, UniProt P21554); type: functional, cell-based
# [2] = target: T1, Progesterone receptor (Homo sapiens, UniProt P06401); type: functional
# T1 sequence (P06401 whole entry): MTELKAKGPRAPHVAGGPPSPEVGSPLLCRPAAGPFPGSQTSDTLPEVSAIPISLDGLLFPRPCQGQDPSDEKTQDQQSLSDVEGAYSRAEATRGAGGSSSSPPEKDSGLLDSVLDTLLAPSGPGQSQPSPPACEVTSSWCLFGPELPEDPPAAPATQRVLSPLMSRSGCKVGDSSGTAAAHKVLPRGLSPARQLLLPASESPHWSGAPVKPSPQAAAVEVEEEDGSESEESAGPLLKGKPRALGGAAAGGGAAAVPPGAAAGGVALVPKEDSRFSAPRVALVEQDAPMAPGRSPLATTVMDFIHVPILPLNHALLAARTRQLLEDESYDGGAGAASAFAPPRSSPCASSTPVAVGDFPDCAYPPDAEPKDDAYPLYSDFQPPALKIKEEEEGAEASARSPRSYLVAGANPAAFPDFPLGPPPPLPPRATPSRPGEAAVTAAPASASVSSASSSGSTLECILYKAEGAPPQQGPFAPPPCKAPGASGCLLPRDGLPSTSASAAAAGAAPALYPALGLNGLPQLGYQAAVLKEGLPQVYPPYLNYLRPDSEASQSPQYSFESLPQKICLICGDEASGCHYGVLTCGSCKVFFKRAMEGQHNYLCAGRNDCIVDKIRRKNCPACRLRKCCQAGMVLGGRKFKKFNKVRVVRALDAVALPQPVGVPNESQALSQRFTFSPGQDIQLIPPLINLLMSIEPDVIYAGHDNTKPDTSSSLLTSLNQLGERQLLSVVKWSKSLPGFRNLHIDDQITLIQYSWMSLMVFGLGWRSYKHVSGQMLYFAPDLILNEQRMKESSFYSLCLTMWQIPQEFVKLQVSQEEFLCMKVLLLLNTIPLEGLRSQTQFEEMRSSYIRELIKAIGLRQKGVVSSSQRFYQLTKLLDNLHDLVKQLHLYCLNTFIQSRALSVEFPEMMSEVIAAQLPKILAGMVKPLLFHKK
# [3] = target: T1, Progesterone receptor; type: functional; remark: listed apart in the source
# [4] = target: T2, 5-hydroxytryptamine receptor 1A (Homo sapiens, UniProt P08908); type: functional, cell-based
# T2 sequence (P08908 whole entry): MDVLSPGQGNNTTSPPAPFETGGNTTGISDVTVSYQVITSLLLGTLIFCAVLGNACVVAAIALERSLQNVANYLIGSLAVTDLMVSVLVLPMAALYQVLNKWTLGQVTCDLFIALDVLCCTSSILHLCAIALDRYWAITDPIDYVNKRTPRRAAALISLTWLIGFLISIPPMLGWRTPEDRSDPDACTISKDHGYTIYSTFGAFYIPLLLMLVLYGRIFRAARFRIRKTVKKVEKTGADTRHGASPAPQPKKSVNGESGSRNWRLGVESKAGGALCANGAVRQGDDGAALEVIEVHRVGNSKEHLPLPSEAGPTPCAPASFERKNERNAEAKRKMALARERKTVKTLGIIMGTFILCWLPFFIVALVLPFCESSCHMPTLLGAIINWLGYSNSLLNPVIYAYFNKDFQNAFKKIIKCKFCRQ
# [5] = target: T3, Amine oxidase [flavin-containing] A (Homo sapiens, UniProt P21397); type: functional
# T3 sequence (P21397 whole entry): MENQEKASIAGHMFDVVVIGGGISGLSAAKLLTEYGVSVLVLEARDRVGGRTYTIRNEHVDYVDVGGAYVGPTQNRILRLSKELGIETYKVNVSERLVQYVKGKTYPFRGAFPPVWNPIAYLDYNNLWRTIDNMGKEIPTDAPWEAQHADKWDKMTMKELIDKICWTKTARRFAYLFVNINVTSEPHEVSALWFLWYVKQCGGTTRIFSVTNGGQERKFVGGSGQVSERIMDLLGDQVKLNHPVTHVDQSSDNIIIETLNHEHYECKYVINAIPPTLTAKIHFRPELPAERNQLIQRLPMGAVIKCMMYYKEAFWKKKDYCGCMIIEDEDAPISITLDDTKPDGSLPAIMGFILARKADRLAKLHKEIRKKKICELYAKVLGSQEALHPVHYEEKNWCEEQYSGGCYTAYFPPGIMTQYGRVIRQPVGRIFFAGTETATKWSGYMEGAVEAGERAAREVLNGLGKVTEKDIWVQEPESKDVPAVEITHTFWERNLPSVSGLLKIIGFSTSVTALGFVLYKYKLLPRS
# [6] = target: Histamine H3 receptor (Homo sapiens, UniProt Q9Y5N1)
# [7] = target: Kappa-type opioid receptor (Homo sapiens, UniProt P41145)
# Note: assay procedure not described here.
# Kappa-type opioid receptor, sequence (P41145 whole entry): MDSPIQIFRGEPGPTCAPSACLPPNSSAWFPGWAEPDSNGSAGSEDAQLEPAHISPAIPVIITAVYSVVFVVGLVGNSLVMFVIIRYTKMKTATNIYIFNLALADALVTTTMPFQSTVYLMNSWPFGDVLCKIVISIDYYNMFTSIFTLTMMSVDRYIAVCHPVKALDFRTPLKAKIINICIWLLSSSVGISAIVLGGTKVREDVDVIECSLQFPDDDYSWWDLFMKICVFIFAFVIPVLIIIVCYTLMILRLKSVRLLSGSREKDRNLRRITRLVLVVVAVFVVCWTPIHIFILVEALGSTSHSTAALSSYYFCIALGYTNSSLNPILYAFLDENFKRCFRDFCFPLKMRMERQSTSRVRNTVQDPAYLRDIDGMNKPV
# Cannabinoid receptor 1, sequence (P21554 whole entry): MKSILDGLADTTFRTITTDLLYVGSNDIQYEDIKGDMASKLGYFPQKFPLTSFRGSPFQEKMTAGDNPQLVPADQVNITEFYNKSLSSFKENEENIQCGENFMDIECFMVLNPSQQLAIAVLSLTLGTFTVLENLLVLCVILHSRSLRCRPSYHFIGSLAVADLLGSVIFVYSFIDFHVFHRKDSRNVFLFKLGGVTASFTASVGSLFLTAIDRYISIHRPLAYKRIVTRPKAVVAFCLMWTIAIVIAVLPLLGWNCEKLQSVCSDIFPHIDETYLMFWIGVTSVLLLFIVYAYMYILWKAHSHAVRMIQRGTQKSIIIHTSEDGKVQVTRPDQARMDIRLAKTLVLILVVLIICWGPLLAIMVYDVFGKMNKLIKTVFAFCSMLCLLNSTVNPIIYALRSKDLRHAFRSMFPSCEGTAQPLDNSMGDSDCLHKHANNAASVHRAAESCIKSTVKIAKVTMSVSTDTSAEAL
# Histamine H3 receptor, sequence (Q9Y5N1 whole entry): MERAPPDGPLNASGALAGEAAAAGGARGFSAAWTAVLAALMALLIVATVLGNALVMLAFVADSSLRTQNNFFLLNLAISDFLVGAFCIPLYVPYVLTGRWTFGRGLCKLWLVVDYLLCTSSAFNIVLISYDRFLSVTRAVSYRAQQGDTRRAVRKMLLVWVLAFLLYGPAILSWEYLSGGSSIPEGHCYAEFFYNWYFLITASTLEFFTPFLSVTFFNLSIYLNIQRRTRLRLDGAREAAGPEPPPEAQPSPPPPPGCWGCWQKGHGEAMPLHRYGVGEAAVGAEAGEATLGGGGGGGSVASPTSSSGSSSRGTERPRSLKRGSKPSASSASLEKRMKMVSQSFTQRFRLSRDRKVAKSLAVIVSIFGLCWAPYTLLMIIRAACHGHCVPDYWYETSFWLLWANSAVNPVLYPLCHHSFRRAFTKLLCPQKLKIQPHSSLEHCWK
Compound,AC50 [1],AC50 [2],AC50 [3],AC50 [4],AC50 [5],AC50 [6],AC50 [7]
CCOCC(O)COc1ccc(NC(=O)CC[S+](C)C)cc1 (centres undefined),> 30 µM,> 30 µM,> 30 µM,> 30 µM,,,
O=C(O)[C@@H](S)[C@@H](S)C(=O)O,,,,,> 30 µM,> 30 µM,
CCOC(=O)[C@H](CCc1ccccc1)N[C@@H](C)C(=O)N1Cc2ccccc2C[C@H]1C(=O)O,> 30 µM,,,> 10 µM,> 30 µM,> 30 µM,> 10 µM
CCC[C@@]1(CCc2ccccc2)CC(O)=C([C@H](CC)c2cccc(NS(=O)(=O)c3ccc(C(F)(F)F)cn3)c2)C(=O)O1,> 30 µM,13 µM,> 30 µM,> 30 µM,,,
C=CC1=C(C(=O)O)N2C(=O)[C@@H](NC(=O)/C(=N\O)c3csc(N)n3)[C@H]2SC1,> 30 µM,,,> 10 µM,,,> 10 µM
O=C(O)COC(=O)Cc1ccccc1Nc1c(Cl)cccc1Cl [ACECLOFENAC],> 30 µM,,,> 10 µM,,,> 10 µM
CN(C)CCc1c[nH]c2ccc(CS(=O)(=O)N3CCCC3)cc12 [ALMOTRIPTAN],> 30 µM,> 30 µM,> 30 µM,,,,> 30 µM
NCCCNCCSP(=O)(O)O [AMIFOSTINE],> 30 µM,,,> 30 µM,,,> 30 µM
NCCCCCC(=O)O [AMINOCAPROIC ACID],,> 10 µM,> 10 µM,> 10 µM,,,> 10 µM
CN(C)CCC=C1c2ccccc2CCc2ccccc21 [AMITRIPTYLINE],> 30 µM,> 30 µM,> 30 µM,,> 30 µM,> 30 µM,
CN1CC2c3ccccc3Oc3ccc(Cl)cc3C2C1 (centres undefined) [ASENAPINE],> 30 µM,> 30 µM,> 30 µM,0.0097 µM,,,
CC(=O)Oc1ccccc1C(=O)O [ASPIRIN],> 30 µM,,,> 10 µM,> 30 µM,> 30 µM,> 10 µM
CC(C)NCC(O)COc1ccc(CC(N)=O)cc1 (centres undefined) [ATENOLOL],,> 30 µM,> 30 µM,,,,> 30 µM
Cn1cnc2c(F)c(Nc3ccc(Br)cc3F)c(C(=O)NOCCO)cc21 [BINIMETINIB],> 30 µM,> 30 µM,> 30 µM,> 30 µM,,,
CC(C)C[C@H](NC(=O)[C@H](Cc1ccccc1)NC(=O)c1cnccn1)B(O)O [BORTEZOMIB],,> 30 µM,> 30 µM,> 30 µM,,,> 30 µM
C[C@H](CS)C(=O)N1CCC[C@H]1C(=O)O [CAPTOPRIL],,,,,,,> 10 µM
O=C(Cc1cccs1)N[C@@H]1C(=O)N2C(C(=O)[O-])=C(C[n+]3ccccc3)CS[C@H]12 [CEPHALORIDINE],> 30 µM,,,> 30 µM,> 30 µM,> 30 µM,> 30 µM
C[C@H](CCC(=O)O)[C@H]1CC[C@H]2[C@@H]3[C@H](O)C[C@@H]4C[C@H](O)CC[C@]4(C)[C@H]3CC[C@]12C [CHENODIOL],> 30 µM,,,> 30 µM,,,
CN(C)CCCC1(c2ccc(F)cc2)OCc2cc(C#N)ccc21 (centres undefined) [CITALOPRAM],> 30 µM,,,> 10 µM,> 30 µM,> 30 µM,> 10 µM
O=C(O)[C@H]1/C(=C/CO)O[C@@H]2CC(=O)N21 [CLAVULANIC ACID],> 30 µM,> 30 µM,> 30 µM,> 30 µM,,,
